In paper PMC6008768, “Physiologically Based Pharmacokinetic Modelling with Dynamic PET Data to Study the In Vivo Effects of Transporter Inhibition on Hepatobiliary Clearance in Mice” (Contrast Media & Molecular Imaging, 2018):
“And” between values parts separate entries of the source, which are not always exact repeats. Equal entries are not always repeated. Where two headings read alike, the source gives them in different places.

Legend:
[1] = tested on: human costimulatory molecule CD80 (hCD80); set-up: method as in Taddio et al., in preparation; conditions: ref Taddio et al., in preparation; cited from earlier work
[2] = cited from earlier work
[3] = set-up: method as in PMID 24834996; conditions: 30 min after administration; cited from earlier work
[4] = set-up: method as in PMID 24834996; conditions: cited from earlier work
[5] = In vivo PBPK compartment modelling of dynamic whole-body PET data; set-up: species or system mice; conditions: for average CLH when kBG was fitted / calculated transintestinal clearance: kBG fitted
Description: C(t) of liver, kidneys, and peripheral tissue and A(t) of gallbladder and intestines were derived from manually drawn volumes of interest according to the PET/CT images, using the VOI functions of PMOD. Regions of interest are shown for a representative scan in Supplementary Figure 1. C(t) data were transformed to A(t) by multiplication with the reported average volume of the respective organ or tissue. These were 0.065 cm^3 per g BW for liver and 0.0164 cm^3 per g BW for kidneys. The volume of the “peripheral tissue” (VTissue) with C(t) determined from the left shoulder was estimated during the fitting procedure. It was 0.74 ± 0.08 cm^3 per g BW for [^11C]MT107 control scans and 0.79 ± 0.10 cm^3/g for [^11C]MT107 scans after cyclosporine treatment, without significant difference (p = 0.47).
A(t) of the individual regions of interest were fitted with custom-written MATLAB scripts (MathWorks, Natick, MA) according to the compartment model shown in Figure 2, using the ode45 function to solve the differential equation system. Tracer input was simulated as a constant input of duration T (A(0)/T). Fitting was performed with the solver fmincon and the function MultiStart with 128 random sets of bounded initial parameters. Calculations were performed by parallel computing on 40 cores of the Euler cluster of ETH Zurich (https://scicomp.ethz.ch/). The initial parameters were best guesses from supervised simulations. Initial lower bounds were 0 for the rate constants of mass transfer (k). For k from plasma to liver and kidneys, the initial upper bounds were set according to the reported values for blood flow, corrected for (1 − hematocrit) to get the plasma flow (QP) divided by the plasma volume (VPlasma = vBlood × (1 − hematocrit) × BW). The QP for liver (QP,H) was 1.0 ml/min and for kidneys (QP,R) 0.73 ml/min.
Figure 2 Model for the pharmacokinetic analysis. A(0) is the dose, and T is the infusion duration (10 s). Initial A(t = 0) for all compartments (indicated by black boxes) were zero. The parameters k are mass transfer rate constants with the unit 1/time. The indices denote the source and target compartments, respectively (e.g., kBH1, k for the mass transfer from blood plasma to hepatic compartment “Liver 1”). A(t) of peripheral tissue was best fit with two sets of rate constants for reversible transfer. The sum of the two plasma-to-tissue rate constants is kBT. Several models were evaluated and the results were visually inspected. […] For [^11C]MT107 scans, kBG (grey arrow) was set to 0. Tissue blood fractions (vBlood multiplied with the organ or tissue volume and CBlood(t)) were added to the compartments where applicable. B, blood plasma; G, gallbladder plus intestine combined; H, liver; R, kidneys; T, peripheral tissue; U, urine.
During the fitting procedure, the sum of weighted squared residuals of all A(t) was minimized. For weighting, the residuals of the first two data points of plasma, liver, and kidney were multiplied with 5, to force the fits through these initial data points. After several rounds, the best estimates with the lowest sum of squared residuals were used per tracer to define the final upper and lower bounds as 0.5-fold the minimal respective fit parameter and 2-fold the highest respective fit parameter per tracer. […] Under these refined conditions, one calculation (one scan) with 128 random sets of initial values required 10–120 min.
CLH was calculated according to (2) CLH=kBH1×kH1H2/kH1B+kH1H2×VPlasma, where the rate constants k are defined in the model in Figure 2. Note that at steady state this equals CLH calculated from kH2G.
The term 1/(1 + kR1R2/kR2R1) corrects for the mass ratio between R1 and the combined R1 and R2.
Total CL was calculated as the sum of CLH and CLR and compared to the CL estimated from the CPlasma(t) biexponential fits (see (1)), as CL = λz × Vz. […]

[6] = tested on: hCD80-positive xenografts; set-up: method as in PMID 24834996; conditions: previous work; cited from earlier work
[7] = Plasma kinetics: biexponential fit of image-derived CPlasma(t) from dynamic PET; format: in vivo, mice
Procedure: (§1) For PET/CT acquisition, mice were anaesthetized with 3 to 5% isoflurane in air/oxygen (1 : 1), at a respiratory rate of ~60 per min as described elsewhere. Cyclosporine (50 mg/kg), to inhibit cyclosporine-sensitive transporters, was injected into a tail vein (i.v.), 30 to 50 min before tracer injection while the respective tracer was synthesized. The injected cyclosporine solution was a dilution with water for injection (1 : 1) of Sandimmun® (Novartis Pharmaceuticals, Basel, Switzerland; 50 mg/ml cyclosporine in 26.1% ethanol/65% PEG-35 castor oil). Vehicle (13% ethanol, 2 ml/kg) was injected as a control as indicated. Immediately after radiosynthesis quality control, the tracer was injected i.v. at a dose between 3 and 14 MBq (<20 nmol/kg) in 100 to 200 μL saline containing 5% ethanol. Injections lasted ~10 s. The mouse was transferred to a SuperArgus PET/CT scanner (Sedecal, Madrid, Spain, formerly Vista eXplore) with an axial field of view of 4.8 cm and a spatial resolution of 1.6–1.7 mm (full width at half maximum; [23]). Body temperature and respiratory rate were controlled as previously described. The PET scan was started in List mode 60 s after tracer injection. After 60 min scan duration, computed tomography (CT) data were recorded for anatomical orientation.
The blood C(t) was generated with PMOD from the PET images as follows. A cropped cube of 10 × 10 × 10 mm^3 including the image data of the heart was divided into 12 segments with differing kinetics, using the PSEG module of PMOD. C(t) of the segment covering the left heart ventricle according to the PET (first time frame)/CT images was used as an estimation of the blood C(t) (CBlood(t)). CBlood(t) was divided by (1 − hematocrit) to get CPlasma(t) and fitted to a biexponential infusion function as shown in (1) CPlasmat=A0/T×V1×λ1×V1/Vz−λ1/λ1λz−λ1×1−e^−λ1×tt≤T+Tt>T×e^−λ1×t−Tt>T+λ1×V1/Vz−λz/λzλ1−λz×1−e^−λz×tt≤T+Tt>T×e^−λz×t−Tt>T, where A(0) is the radioactivity dose, T is the duration of the injection (10 s infusion), V1 is the volume of the central compartment (initial volume of distribution of the tracer after injection), Vz is the volume of distribution during the terminal phase, and λ1 and λz are the respective rate constants of the biexponential function and t the time. The term [t(t ≤ T) + T(t > T)] equals t if t ≤ T but T if t > T. The term (t − T)(t > T) equals t − T if t > T, otherwise zero. The hematocrit was assumed 0.44 [25, 26].
Total CL was calculated as the sum of CLH and CLR and compared to the CL estimated from the CPlasma(t) biexponential fits (see (1)), as CL = λz × Vz. The extraction ratio EH for liver was estimated as ratio between CLH and QP,H, with QP,H from Davies and Morris.

[8] = PET images: radioactivity distribution; format: in vivo, mice; conditions: for radioactivity distribution in PET images: control conditions; for change of radioactivity distribution in PET images: cyclosporine 50 mg/kg i.v. before tracer, compared to scans without cyclosporine
Procedure: as §1
The PET data were reconstructed into 10 or 12 time frames by 2D Fourier rebinning/ordered-subsets expectation maximization (FORE/OSEM), 2 iterations, and 16 subsets, correcting for singles and randoms but not attenuation. Images were generated with the software PMOD v3.8 (PMOD, Zurich, Switzerland). All radioactivities were decay-corrected to the time point of tracer injection.

[9] = control, for [11C]AM7 CLH includes kBG × VPlasma, for [11C]MT107 kBG = 0
[10] = after cyclosporine 50 mg/kg i.v.
[11] = after cyclosporine 50 mg/kg i.v., 30 to 50 min before tracer
[12] = control, tracer i.v., 60 min PET scan
[13] = cyclosporine 50 mg/kg i.v. versus control

| Compound | affinity to hCD80 [1] | CLR, renal clearance ([5]; control) | DTissue, distribution coefficient between tissue and plasma at equilibrium ([5]; control) | CLH, hepatobiliary clearance [5, 9] | Vz, volume of distribution during the terminal phase [7, 10] | λ1 rate constant of biexponential function [7, 10] | λz rate constant of biexponential function [7, 10] | V1, volume of the central compartment [7, 11] | Vz, volume of distribution during the terminal phase ([7]; control) | λ1 rate constant of biexponential function ([7]; control) | λz rate constant of biexponential function ([7]; control) | V1, volume of the central compartment [7, 12] | radioactivity distribution in PET images [8] | change of radioactivity distribution in PET images [8] | other results |
| --- | --- | --- | --- | --- | --- | --- | --- | --- | --- | --- | --- | --- | --- | --- | --- |
| [11CH3]N1CCC(NC(=O)c2ccc(-n3[nH]c4c(nnc5c(F)cccc54)c3=O)cc2)CC1 [[^11C]AM7] | low nanomolar range | 161 µL/min and 179 µL/min | 0.11 and 0.12 | 103 µL/min and 120 µL/min | 8.0 mL | 0.204 min⁻¹ | 0.0206 min⁻¹ | 4.2 mL | 10.3 mL and 9.4 mL | 0.196 min⁻¹ and 0.295 min⁻¹ | 0.0234 min⁻¹ and 0.0270 min⁻¹ | 3.0 mL and 2.3 mL | accumulated in the liver, gallbladder, intestines, and the urinary bladder | increased in kidneys and peripheral tissue and reduced in liver, gallbladder, and intestines | logD (pH 7.4) [2]: 0.1; radiometabolites in blood plasma [3]: No radiometabolites were detected; unbound fraction in plasma (fu) [4]: 0.02; accumulation in hCD80-positive xenografts [6]: negligible |
| [11CH3]N1CCC(NC(=O)c2ccc(-n3[nH]c4c(c(-c5cccc(C(F)(F)F)c5)nc5c(F)cccc54)c3=O)cc2)CC1 [[^11C]MT107] | low nanomolar range | 11.9 ± 5.3 µL/min | 0.10 ± 0.02 | 35.2 ± 10.9 µL/min | 3.33 ± 0.80 mL | 0.139 ± 0.021 min⁻¹ | 0.0140 ± 0.0034^∗∗b 1/min | 1.38 ± 0.11 mL | 2.66 ± 0.51 mL | 0.121 ± 0.011 min⁻¹ | 0.0210 ± 0.0011 min⁻¹ | 1.49 ± 0.19 mL | higher tissue radioactivity compared to [^11C]AM7 but still high abdominal radioactivity accumulation | increased radioactivity uptake in the kidneys and peripheral tissue and reduction in the liver | logD (pH 7.4) ([2]; ref Taddio et al., in preparation): 2.0; kGH1, rate constant of reabsorption from intestines into liver compartment H1 ([5]; absence of cyclosporine): 0.0077 ± 0.0033 min⁻¹; CLR, renal clearance [5, 10]: 19.9 ± 5.1 µL/min; DTissue, distribution coefficient between tissue and plasma at equilibrium [5, 10]: 0.14 ± 0.03; CLH, hepatobiliary clearance ([5]; after cyclosporine 50 mg/kg i.v., kBG = 0): 17.1 ± 5.6 µl/min and 17.1 ± 5.6^∗b µl/min; average CLH when kBG was fitted ([5]; after cyclosporine administration): 9.3 ± 4.2 µL/min; increase of CLR after cyclosporine administration ([5]; average, not significant (p = 0.069)): 1.7 fold; EH, extraction ratio for liver (CLH/QP,H) ([5]; control): 0.035 ± 0.011; total CL from modelling lower than from biexponential fit of CPlasma(t) ([5]; control group): 16%; VTissue, volume of the peripheral tissue estimated during fitting ([5]; control scans): 0.74 ± 0.08 cm^3 per g BW; average CLH when kBG was fitted ([5]; control): 25.4 ± 6 µL/min; calculated transintestinal clearance ([5]; control): 10.5 ± 11.3 µL/min; CLH after cyclosporine relative to value in the absence of cyclosporine [5, 13]: 48%; EH after cyclosporine relative to value in the absence of cyclosporine [5, 13]: 48%; total CL from modelling lower than from biexponential fit of CPlasma(t) ([5]; cyclosporine group): 17%; calculated transintestinal clearance ([5]; cyclosporine group): 7.8 ± 4.1 µL/min; increase of average DTissue after cyclosporine administration (factor) ([5]; not significant (p = 0.078)): 1.34; kGH1, rate constant of reabsorption from intestines into liver compartment H1 ([5]; presence of cyclosporine): 0.0080 ± 0.0038 min⁻¹; VTissue, volume of the peripheral tissue estimated during fitting ([5]; scans after cyclosporine treatment): 0.79 ± 0.10 cm^3/g; increase of Vz after cyclosporine administration ([7]; not significant (p = 0.21)): 1.25 fold |
